Results as given in patent publication US12214058B2, “Imaging methods using deuterated compounds” (Genentech, Inc., priority 2014, dated 2025).
pKd: −log10 of the molar value.

What was measured:
[1] = Microsomal stability assay, mouse liver microsomes; type: in vitro ADME; details: 5 min; for fraction of unmetabolized compound: non-radiolabeled
Procedure: (§1) Microsomal stability assays The tracer [^18F][A]-d2 or [^18F][A] was dissolved in potassium phosphate (Kpi) buffer (100 mM) at concentration 500-600 μCi/mL. The non-radioactive 7 and 10 were dissolved in Kpi buffer at 10 μM concentration. The reaction vessel was charged with human or mouse liver microsome suspension (12.5 μL, 20 mg/mL) followed by Kpi buffer (388 μL, 10 mM), NADPH (50 μL, 10 mM) and incubated at 37° C. for 5-10 min. A solution of the radioactive [^18F][A]-d2 or [^18F][A] (50 μL, 250-300 μCi) or non-radioactive 7 or 8 (50 μL, 10 μM) were added to the reaction vessel and the mixture was incubated at 37° C. Aliquots (50 μL) of the reaction mixture were taken at 5, 15 and 45 minutes post addition of the tested compound, mixed with ice-cold acetonitrile (100 μL) and centrifuged. The supernatant was analyzed by LCMS (System E).

[2] = Microsomal stability assay, human liver microsomes; type: in vitro ADME; details: for amount of remaining compound: non-radiolabeled, 40 min
Procedure: as §1, with “Aliquots (50 μL) of the reaction mixture were taken at 5, 15 and 45 minutes post addition of the tested compound, mixed with ice-cold acetonitrile (100 μL) and centrifuged.” left out

[3] = Dynamic microPET imaging in mice; type: in vivo, mice (C57BL/6)
Procedure: MicroPET Imaging The PET imaging was performed on Inveon PET/CT scanner (Siemens Medical Solutions USA Inc.). Animals anesthetized with sevoflurane were placed head-first, prone position on the scanner bed and dynamic 45 min scans were initiated. Approximately 3.7 MBq of ^18F-radiolabeled tracer in isotonic solution (100-130 μL) was administered as 60 second intravenous infusion via the tail vein. Body temperature was measured by a rectal probe and maintained with warm air flow at 37° C. Full-body iterative image reconstructions were obtained using maximum a posteriori algorithm (MAP, hyperparameter β 0.05) and corrected for signal attenuation using the tissue density obtained from CT. Projections were created with PMOD 3.305 (PMOD Technologies, Ltd., Zurich, Switzerland) and used to obtain quantitative activity levels in each organ of interest using region-of-interest analysis.

[4] = target: tau aggregates in AD patient tissues; details: cited from earlier work
[5] = test system: tau (NFTs) in human brain tissues; experiment: Autoradiography on postmortem human brain tissues; type: binding
Procedure: Autoradiography The tracer [^18F][A] or [^18F][A]-d2 was dissolved in PBS containing 5% DMSO and 5% ethanol at final concentration 40 μCi/mL. Then 0.5 ml of stock solution was transferred to a microscope slide with 5 μm thick freshly dried section of a tissue and incubated for 90 min at room temperature. The slides were washed by dipping into following solutions: PBS for 1 min, 70% ethanol 2 min, 30% ethanol 2 min and PBS 1 min. The samples were dried at room temperature for 30 min and exposed to phosphorimager plate for 20 h. The exposed plates were scanned at 25 μm resolution.
Autoradiographic evaluation of [^18F][A] and [^18F][A]-d2 was performed using brain tissues collected postmortem from human donors. […] The positive staining was found in grey matter of tissues containing high level of NFTs and high AD-amyloid characterized as Braak score 5. […] The NFT and Aβ-amyloid burden was measured by standard immunohistochemical methods.

[6] = Microsomal stability assay, rhesus liver microsomes; type: in vitro ADME
Procedure: as §1, with “E). The radiolabeled tracers [^18F][A] and [^18F][A]-d2 (n=3) were incubated with human, rhesus or mouse liver microsome suspension with or without NADPH at 37° C. and the mixture was analyzed for a presence of radioactive metabolites at 5, 15 and 45 min. In the presence of mouse and rhesus liver microsomes, both the [^18F][A] and [^18F][A]-d2 metabolized rapidly to ^18F-fluoride (retention time (rt)=0.38 min), and two radioactive metabolites M2 and M1 (rt=1.2 and 1.4 min). […]” for “E).”

| Compound | fraction of unmetabolized compound [1] [%] | amount of remaining compound [2] [%] | bone uptake ([3]; n=6, 30-45 min post tracer injection) [% ID/g] | pKd ([4]; AD patient tissues, read-out: affinity for tau aggregates in AD patient tissues) | selectivity for tau over Aβ amyloid [4] [fold] | amount of parent compound ([1]; radiolabeled, n=3) [%] | fraction attributed to parent compound ([2]; radiolabeled, 45 min incubation, n=3) [%] | staining of negative control tissues ([5]; high or moderate amyloid burden but no NFTs, Braak score 3 or 2) | autoradiographic binding pattern ([5]; human brain tissues, positive staining in grey matter with high NFTs, Braak score 5) | uptake in liver and kidneys, comparison of the two tracers ([3]; n=6) | peak uptake in brain ([3]; n=6, i.v., dynamic PET) [% ID/g] | stability of parent compound compared with mouse liver microsomes [6] |
| --- | --- | --- | --- | --- | --- | --- | --- | --- | --- | --- | --- | --- |
| FCCC1CCN(c2ccn3c(n2)nc2ccccc23)CC1 [[A], 2-(1-(benzo[4,5]imidazo[1,2-a]pyrimidine-2-yl)piperidin-4-yl)-1-fluoroethane, reference compound] | 2 | 15 | 31.2±4.8 | – | – | – | – | – | – | – | – | – |
| [2H]C([2H])(F)CC1CCN(c2ccn3c(n2)nc2ccccc23)CC1 [[A]-d2, 1,1-dideutero-2-(1-(benzo[4,5]imidazo[1,2-a]pyrimidine-2-yl)piperidin-4-yl)-1-fluoroethane] | 11 | 56 | – | – | – | – | – | – | – | – | – | – |
| [18F]CCC1CCN(c2ccn3c(n2)nc2ccccc23)CC1 [[^18F][A], 2-(1-(benzo[4,5]imidazo[1,2-a]pyrimidine-2-yl)piperidin-4-yl)-1-[^18F]fluoroethane, reference compound] | – | – | – | 7.66 | 27 | 1.6±0.9 | 35.7±0.9 | not positively stained | tau specific binding patterns | indistinguishable | 8.3±2.0 | slightly more stable |
